In PubChem BioAssay (NCI):
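All cell lines were grown in 96-well plates and treated with compound for 48 hours. TGI denotes the concentration required for complete inhibition of growth.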

How the values were obtained:
Assay in all cases: NCI-60 cell line screen, 48 h
LOX IMVI melanoma = test system: LOX IMVI melanoma
TK-10 renal = test system: TK-10 renal
SK-MEL-5 melanoma = test system: SK-MEL-5 melanoma
HCT-15 colon = test system: HCT-15 colon
COLO 205 colon = test system: COLO 205 colon
MOLT-4 leukemia = test system: MOLT-4 leukemia
NCI-H23 lung = test system: NCI-H23 lung
NCI-H522 lung = test system: NCI-H522 lung
SF-539 CNS = test system: SF-539 CNS
BT-549 breast = test system: BT-549 breast

SMILES: C=C(C)C1CC(=O)C(C)=C(O)C1 (stereo not given)
- TGI (LOX IMVI melanoma): > 100 µM
- TGI (TK-10 renal): > 100 µM
- TGI (SK-MEL-5 melanoma): > 100 µM
- TGI (HCT-15 colon): > 100 µM
- TGI (COLO 205 colon): > 100 µM
- TGI (MOLT-4 leukemia): > 100 µM
- TGI (NCI-H23 lung): > 100 µM
- TGI (NCI-H522 lung): > 100 µM
- TGI (SF-539 CNS): > 100 µM
- TGI (BT-549 breast): > 100 µM

SMILES: COc1cc2c(/C=C3/C(=O)Nc4ccccc43)c(Cl)n(Cc3ccc(Cl)cc3)c2cc1C
- TGI (LOX IMVI melanoma): 2.54 µM
- TGI (TK-10 renal): 7.67 µM
- TGI (SK-MEL-5 melanoma): 1.62 µM
- TGI (HCT-15 colon): 0.969 µM
- TGI (COLO 205 colon): 0.665 µM
- TGI (MOLT-4 leukemia): 0.627 µM
- TGI (NCI-H23 lung): 0.644 µM
- TGI (NCI-H522 lung): 2.06 µM
- TGI (SF-539 CNS): 0.668 µM
- TGI (BT-549 breast): 1.92 µM

SMILES: C=C1c2nc3ccccc3n2C=C(c2ccc(C)cc2)N1c1ccc(OC)cc1
- TGI (LOX IMVI melanoma): > 100 µM
- TGI (TK-10 renal): > 100 µM
- TGI (SK-MEL-5 melanoma): > 100 µM
- TGI (HCT-15 colon): > 100 µM
- TGI (COLO 205 colon): > 100 µM
- TGI (MOLT-4 leukemia): > 100 µM
- TGI (NCI-H23 lung): > 100 µM
- TGI (NCI-H522 lung): > 77.7 µM
- TGI (SF-539 CNS): > 100 µM
- TGI (BT-549 breast): > 100 µM

SMILES: CCN(CC)C(=S)SC(C(=O)Nc1nnc(-c2ccc(Cl)cc2)o1)c1ccccc1 (stereo not given)
- TGI (LOX IMVI melanoma): 40.2 µM
- TGI (TK-10 renal): 62.3 µM
- TGI (SK-MEL-5 melanoma): 19.4 µM
- TGI (HCT-15 colon): 18.9 µM
- TGI (COLO 205 colon): 14.5 µM
- TGI (MOLT-4 leukemia): > 100 µM
- TGI (NCI-H23 lung): > 100 µM
- TGI (NCI-H522 lung): 26.6 µM
- TGI (SF-539 CNS): 30.5 µM
- TGI (BT-549 breast): 66.7 µM

SMILES: CCOP(=O)(/C=C/n1cc(C)c(=O)[nH]c1=O)OCC
- TGI (LOX IMVI melanoma): > 100 µM
- TGI (TK-10 renal): > 100 µM
- TGI (SK-MEL-5 melanoma): > 100 µM
- TGI (HCT-15 colon): > 100 µM
- TGI (COLO 205 colon): > 100 µM
- TGI (MOLT-4 leukemia): > 100 µM
- TGI (NCI-H23 lung): > 100 µM
- TGI (NCI-H522 lung): > 100 µM
- TGI (SF-539 CNS): > 100 µM
- TGI (BT-549 breast): > 100 µM

SMILES: O=[N+]([O-])c1ccc(-n2nc3ccc4nonc4c3n2)cc1
- TGI (LOX IMVI melanoma): > 100 µM
- TGI (TK-10 renal): 39.9 µM
- TGI (SK-MEL-5 melanoma): > 100 µM
- TGI (HCT-15 colon): > 100 µM
- TGI (COLO 205 colon): > 100 µM
- TGI (MOLT-4 leukemia): > 100 µM
- TGI (NCI-H23 lung): > 100 µM
- TGI (NCI-H522 lung): > 100 µM
- TGI (SF-539 CNS): > 100 µM
- TGI (BT-549 breast): 63.7 µM

SMILES: Cn1c(=O)c2c(nc3[nH]c(=O)c(Br)cn32)n(C)c1=O
- TGI (LOX IMVI melanoma): > 100 µM
- TGI (TK-10 renal): > 100 µM
- TGI (SK-MEL-5 melanoma): > 100 µM
- TGI (HCT-15 colon): > 100 µM
- TGI (COLO 205 colon): > 100 µM
- TGI (MOLT-4 leukemia): > 100 µM
- TGI (NCI-H23 lung): > 100 µM
- TGI (NCI-H522 lung): > 100 µM
- TGI (SF-539 CNS): > 100 µM
- TGI (BT-549 breast): > 100 µM

SMILES: COc1cc2c(cc1OC)C(=O)N(c1ccc(OCCN3CCCC3)cc1)C2
- TGI (LOX IMVI melanoma): > 100 µM
- TGI (TK-10 renal): > 100 µM
- TGI (SK-MEL-5 melanoma): > 100 µM
- TGI (HCT-15 colon): > 100 µM
- TGI (COLO 205 colon): > 100 µM
- TGI (MOLT-4 leukemia): > 100 µM
- TGI (NCI-H23 lung): > 100 µM
- TGI (NCI-H522 lung): > 100 µM
- TGI (SF-539 CNS): > 100 µM
- TGI (BT-549 breast): > 100 µM

SMILES: CN1CCN(C(=O)c2cn(Cc3cncn3Cc3ccc4c(c3)OCO4)cc2-c2cccc3ccccc23)CC1
- TGI (LOX IMVI melanoma): 47.8 µM
- TGI (TK-10 renal): > 100 µM
- TGI (SK-MEL-5 melanoma): 37.4 µM
- TGI (HCT-15 colon): > 100 µM
- TGI (COLO 205 colon): 49.9 µM
- TGI (MOLT-4 leukemia): 33.6 µM
- TGI (NCI-H23 lung): > 89.7 µM
- TGI (NCI-H522 lung): 84.1 µM
- TGI (SF-539 CNS): > 72.8 µM
- TGI (BT-549 breast): > 63 µM
